From US7964613B2 (Asahi Kasei Pharma Corporation, priority 2007, dated 2011) come the findings set out here.

The structures appear in SMILES notation.

The assay concerns rabbit normal intraocular pressure. The experiment in a line: Intraocular pressure reducing action. In kind it is in vivo, Japanese white rabbit. Particulars: Oryctolagus cuniculus, topical; 3 mM aqueous solution, 50 μl to the left eye; max IOP reduction (2, 4, 6 hours) / value immediately before administration; read-out: intraocular pressure reducing degree. As to the method: A Japanese white rabbit having a body weight of about 2 kg was placed in a positioner and naturalized for one week before the experiment. An opthalmologic local anesthesant (Benoxil) was administered to both eyes, and then intraocular pressure was measured by using a tonometer (Classic 30, Solan). A 3 mM aqueous solution of a test compound was administered in a volume of 50 μl to the left eye, and the right eye was not treated (control eye). The intraocular pressure values were measured for the left and right eyes immediately before, and 2, 4 and 6 hours after the administration of the aqueous solution of the test compound, and the difference of the measured values for the left and right eyes was considered an intraocular pressure reduction value of the test medicament at each measurement time. The largest difference of the values for the left and right eyes among the measured values at the measurement times (after 2, 4 and 6 hours) was considered the maximum intraocular pressure reduction value (max ? IOP) of each test medicament. The intraocular pressure reducing degree representing the intraocular pressure reducing action of each test medicament was calculated according to the following formula. Since rabbits show significant daily variation of intraocular pressure, daily variation is added when change of intraocular pressure is measured over time, and the intraocular pressure reducing action may be overestimated. Therefore, we used this calculation method of intraocular pressure reduction value in order to minimize the influence of the variation. Intraocular pressure reducing degree(%)=(max ? IOP/Intraocular pressure value immediately before administration)×100
As to `CC(=O)NCCC(=O)NC1CCN(S(=O)(=O)c2cccc3cncc(Cl)c23)C1` (stereo in doubt) [Example 97, (R)-3-[(3-Acetylamino)propionyl]amino-1-(4-chloro-5-isoquinolinesulfonyl)pyrrolidine], the inhibition in vivo at 3000 µM was 10 to 20%.

Consider `N#Cc1cncc2cccc(S(=O)(=O)N3CC[C@H](N)C3)c12` [Example 13-1, (S)-3-Amino-1-(4-cyano-5-isoquinolinesulfonyl)pyrrolidine], for which the inhibition in vivo at 3000 µM was 5 to 10%.

As to `N[C@H]1CCN(S(=O)(=O)c2cccc3cncc(-c4cnoc4)c23)C1` [Example 24-1, (S)-3-Amino-1-[4-(4-isoxazolyl)-5-isoquinolinesulfonyl]pyrrolidine], the inhibition in vivo at 3000 µM fell in the range of 5 to 10%.

`CC(=O)N[C@H]1CCN(S(=O)(=O)c2cccc3cncc(Cl)c23)C1` [Example 49-1, (S)-3-(Acetylamino)-1-(4-chloro-5-isoquinolinesulfonyl)pyrrolidine]: the inhibition in vivo at 3000 µM is 10 to 20%.

Turning to `O=S(=O)(c1cccc2cncc(Cl)c12)N1CC[C@H](NC2CCOC2)C1` (stereo partly drawn) [Example 59-1, (3S)-3-(3-Tetrahydrofuranyl)amino-1-(4-chloro-5-isoquinolinesulfonyl)pyrrolidine], the inhibition in vivo at 3000 µM lay in the range of 10 to 20%.

Take `NCC1CCCCN1S(=O)(=O)c1cccc2cncc(Cl)c12` (stereo not shown) [Example 61, 2-(Aminomethyl)-1-(4-chloro-5-isoquinolinesulfonyl)piperidine]: the inhibition in vivo at 3000 µM was 10 to 20%.

As to `CN(C)CC(=O)N(C)[C@H]1CCN(S(=O)(=O)c2cccc3cncc(Cl)c23)C1` [Example 66-1, (S)-3-[N-(2-Dimethylamino)acetyl-N-methyl]amino-1-(4-chloro-5-isoquinolinesulfonyl)pyrrolidine], the inhibition in vivo at 3000 µM was in the range of 5 to 10%.

For the molecule `COCC(=O)N(C)[C@H]1CCN(S(=O)(=O)c2cccc3cncc(Cl)c23)C1` [Example 67-1, (S)-3-[N-(2-Methoxyacetyl)-N-methyl]amino-1-(4-chloro-5-isoquinolinesulfonyl)pyrrolidine], the inhibition in vivo at 3000 µM lay within 10 to 20%.

Consider `COCC(=O)N[C@H]1CCN(S(=O)(=O)c2cccc3c(O)ncc(Cl)c23)C1` [Example 68-1, (S)-3-(2-Methoxyacetyl)amino-1-(1-hydroxy-4-chloro-5-isoquinolinesulfonyl)pyrrolidine], for which the inhibition in vivo at 3000 µM is 5 to 10%.

With `COCC(=O)N[C@H]1CCN(S(=O)(=O)c2cccc3cncc(C)c23)C1` [Example 70, (S)-3-(2-Methoxyacetyl)amino-1-(4-methyl-5-isoquinolinesulfonyl)pyrrolidine], the inhibition in vivo at 3000 µM was no less than 20%.

For `Cc1cncc2cccc(S(=O)(=O)N3CC[C@H](NC(=O)CN(C)C)C3)c12` [Example 72, (S)-3-[2-(Dimethylamino)acetyl]amino-1-(4-methyl-5-isoquinolinesulfonyl)pyrrolidine], the inhibition in vivo at 3000 µM fell in the range of 10 to 20%.

For `CN(C)CC(=O)N[C@H]1CCN(S(=O)(=O)c2cccc3cncc(Br)c23)C1` [Example 73, (S)-3-[(2-Dimethylamino)acetyl]amino-1-(4-bromo-5-isoquinolinesulfonyl)pyrrolidine], the inhibition in vivo at 3000 µM is 10 to 20%.

For `O=C(CO)N[C@H]1CCN(S(=O)(=O)c2cccc3cncc(Cl)c23)C1` [Example 74, (S)-3-(2-Hydroxyacetyl)amino-1-(4-chloro-5-isoquinolinesulfonyl)pyrrolidine], the inhibition in vivo at 3000 µM lay within 10 to 20%.

Take `O=C(CCO)N[C@H]1CCN(S(=O)(=O)c2cccc3cncc(Cl)c23)C1` [Example 75, (S)-3-(3-Hydroxypropionyl)amino-1-(4-chloro-5-isoquinolinesulfonyl)pyrrolidine]: the inhibition in vivo at 3000 µM was in the range of 10 to 20%.

As for `O=C(CCOc1ccccc1)N[C@H]1CCN(S(=O)(=O)c2cccc3cncc(Cl)c23)C1` [Example 76, (S)-3-(3-Phenoxypropionyl)amino-1-(4-chloro-5-isoquinolinesulfonyl)pyrrolidine], the inhibition in vivo at 3000 µM was in the range of 10 to 20%.

Take `COCCC(=O)N[C@H]1CCN(S(=O)(=O)c2cccc3cncc(Cl)c23)C1` [Example 77, (S)-3-(3-Methoxypropionyl)amino-1-(4-chloro-5-isoquinolinesulfonyl)pyrrolidine]: the inhibition in vivo at 3000 µM is no less than 20%.

`CN(C)CCC(=O)N[C@H]1CCN(S(=O)(=O)c2cccc3cncc(Cl)c23)C1` [Example 78, (S)-3-[3-(Dimethylamino)propionyl]amino-1-(4-chloro-5-isoquinolinesulfonyl)pyrrolidine]: the inhibition in vivo at 3000 µM fell in the range of 10 to 20%.

In the case of `CSCCC(=O)N[C@H]1CCN(S(=O)(=O)c2cccc3cncc(Cl)c23)C1` [Example 79, (S)-3-[3-(Methylthio)propionyl]amino-1-(4-chloro-5-isoquinolinesulfonyl)pyrrolidine], the inhibition in vivo at 3000 µM is 10 to 20%.

For `O=C(CCn1ccnc1)N[C@H]1CCN(S(=O)(=O)c2cccc3cncc(Cl)c23)C1` [Example 81, (S)-3-[3-(1H-Imidazol-1-yl)propionyl]amino-1-(4-chloro-5-isoquinolinesulfonyl)pyrrolidine], the inhibition in vivo at 3000 µM was in the range of 10 to 20%.

Take `O=C(CCn1cnnn1)N[C@H]1CCN(S(=O)(=O)c2cccc3cncc(Cl)c23)C1` [Example 82, (S)-3-[3-(1H-Tetrazol-1-yl)propionyl]amino-1-(4-chloro-5-isoquinolinesulfonyl)pyrrolidine]: the inhibition in vivo at 3000 µM lay within 5 to 10%.

`O=C(Cn1cncn1)N[C@H]1CCN(S(=O)(=O)c2cccc3cncc(Cl)c23)C1` [Example 84, (S)-3-[2-(1H-1,2,4-Triazol-1-yl)acetyl]amino-1-(4-chloro-5-isoquinolinesulfonyl)pyrrolidine]: the inhibition in vivo at 3000 µM lay in the range of 10 to 20%.

For `O=C(Cn1ccnc1)N[C@H]1CCN(S(=O)(=O)c2cccc3cncc(Cl)c23)C1` [Example 86, (S)-3-[2-(1H-Imidazol-1-yl)acetyl]amino-1-(4-chloro-5-isoquinolinesulfonyl)pyrrolidine], the inhibition in vivo at 3000 µM lay in the range of 10 to 20%.

For the molecule `O=C(CN1CCCC1=O)N[C@H]1CCN(S(=O)(=O)c2cccc3cncc(Cl)c23)C1` [Example 87, (S)-3-[2-(2-Oxopyrrolidin-1-yl)acetyl]amino-1-(4-chloro-5-isoquinolinesulfonyl)pyrrolidine], the inhibition in vivo at 3000 µM lay in the range of 10 to 20%.

For `O=C(CN1CCOCC1)N[C@H]1CCN(S(=O)(=O)c2cccc3cncc(Cl)c23)C1` [Example 88, (S)-3-[2-(Morpholin-1-yl)acetyl]amino-1-(4-chloro-5-isoquinolinesulfonyl)pyrrolidine], the inhibition in vivo at 3000 µM lay within 10 to 20%.

Regarding `CN1CCN(CC(=O)N[C@H]2CCN(S(=O)(=O)c3cccc4cncc(Cl)c34)C2)CC1` [Example 89, (S)-3-[2-(4-Methylpiperazin-1-yl)acetyl]amino-1-(4-chloro-5-isoquinolinesulfonyl)pyrrolidine], the inhibition in vivo at 3000 µM lay within 5 to 10%.

On to `N#CCC(=O)N[C@H]1CCN(S(=O)(=O)c2cccc3cncc(Cl)c23)C1` [Example 90, (S)-3-(2-Cyanoacetyl)amino-1-(4-chloro-5-isoquinolinesulfonyl)pyrrolidine], for which the inhibition in vivo at 3000 µM lay in the range of 10 to 20%.

Turning to `O=C(CN1CCNCC1)N[C@H]1CCN(S(=O)(=O)c2cccc3cncc(Cl)c23)C1` [Example 91, (S)-3-[2-(piperazin-1-yl)acetyl]amino-1-(4-chloro-5-isoquinolinesulfonyl)pyrrolidine], the inhibition in vivo at 3000 µM was 10 to 20%.

`O=C(CN1CCN(CCO)CC1)N[C@H]1CCN(S(=O)(=O)c2cccc3cncc(Cl)c23)C1` [Example 92, (S)-3-[2-[4-(2-Hydroxyethyl)piperazin-1-yl]acetyl]amino-1-(4-chloro-5-isoquinolinesulfonyl)pyrrolidine]: the inhibition in vivo at 3000 µM was 10 to 20%.

With `O=C(CN1CCOC1=O)N[C@H]1CCN(S(=O)(=O)c2cccc3cncc(Cl)c23)C1` [Example 93, (S)-3-[2-(2-Oxooxazolidin-3-yl)acetyl]amino-1-(4-chloro-5-isoquinolinesulfonyl)pyrrolidine], the inhibition in vivo at 3000 µM lay within 10 to 20%.

As for `O=C(CNC(=O)c1ccccc1)N[C@H]1CCN(S(=O)(=O)c2cccc3cncc(Cl)c23)C1` [Example 94, (S)-3-[(2-Benzoylamino)acetyl]amino-1-(4-chloro-5-isoquinolinesulfonyl)pyrrolidine], the inhibition in vivo at 3000 µM was 10 to 20%.

For `O=C(CNC(=O)c1cccnc1)N[C@H]1CCN(S(=O)(=O)c2cccc3cncc(Cl)c23)C1` [Example 95, (S)-3-[(2-Nicotinamino)acetyl]amino-1-(4-chloro-5-isoquinolinesulfonyl)pyrrolidine], the inhibition in vivo at 3000 µM was in the range of 10 to 20%.

For `COCCOCC(=O)N[C@H]1CCN(S(=O)(=O)c2cccc3cncc(Cl)c23)C1` [Example 98, (S)-3-[2-(2-Methoxyethoxy)acetyl]amino-1-(4-chloro-5-isoquinolinesulfonyl)pyrrolidine], the inhibition in vivo at 3000 µM is no less than 20%.

Consider `COCCOCCOCC(=O)N[C@H]1CCN(S(=O)(=O)c2cccc3cncc(Cl)c23)C1` [Example 99, (S)-3-[2-[2-(2-Methoxyethoxy)ethoxy]acetyl]amino-1-(4-chloro-5-isoquinolinesulfonyl)pyrrolidine], for which the inhibition in vivo at 3000 µM fell in the range of 10 to 20%.

As to `NC(C(=O)N[C@H]1CCN(S(=O)(=O)c2cccc3cncc(Cl)c23)C1)c1ccccc1` (stereo partly drawn) [Example 106, (S)-3-[(2-Amino-2-phenyl)acetyl]amino-1-(4-chloro-5-isoquinolinesulfonyl)pyrrolidine], the inhibition in vivo at 3000 µM was no less than 20%.
